The NIST ThermoML archive (doi:10.1021/je700132w)
± gives the expanded uncertainty stated by the source.

Settings: Liquid; for Critical pressure: Direct measurement; for Critical density: Rectilinear diameter; for Critical temperature: Visual observation in an unstirred cell

Row | SMILES | Critical pressure | Critical density | Critical temperature
1 | C=CCC [1-butene] | 4000 ± 60 kPa | 233 ± 7 kg/m3 | 421.2 ± 0.6 K
2 | CC(C)CC(C)(C)C [2,2,4-trimethylpentane] | 2570 ± 60 kPa | 251 ± 7 kg/m3 | 544.1 ± 0.6 K
3 | CC(C)C [2-methylpropane] | 3620 ± 60 kPa | 220 ± 6 kg/m3 | 409.9 ± 0.6 K
4 | O=C=O [carbon dioxide] | 7380 ± 60 kPa | 473 ± 8 kg/m3 | 304.8 ± 0.6 K
